Test results taken from paper PMC9278491, “Filarial nematode phenotypic screening cascade to identify compounds with anti-parasitic activity for drug discovery optimization” (International Journal for Parasitology: Drugs and Drug …, 2022).
“And” between values parts separate entries of the source, which are not always exact repeats. Equal entries are not always repeated. Where two headings read alike, the source gives them in different places.

Key:
adult L. sigmodontis = test: L. sigmodontis murine model of filariasis (adult worm burden); assay type: in vivo, Litomosoides sigmodontis in female BALB/c mice; settings: BALB/c mice, 2 mg/kg, QD SC, 5 days, mean vs mean of vehicle controls
[1] = tested on: O. gutturosa adult male worms; test: O. gutturosa adult worm 5-day motility assay; design: species or system Onchocerca gutturosa; settings: 5 days in vitro culture, top concentration 12.5 μM, read-out: O. gutturosa EC50 (motility inhibition, adult worms)
From the text: O. gutturosa adult male worms were obtained postmortem from freshly slaughtered cattle. The worms were dissected from the nuchal ligament connective tissues of naturally infected cattle in Gambia, West Africa; The West Africa Livestock Innovation Centre (WALIC), Banjul, purchased material from local butchers for use in this study.
Using a dissecting microscope and micropipette, microfilariae were then transferred in groups of 5 into each well of a 96-well plate (Fisher Scientific, UK). The adult O. gutturosa worms were transferred individually to each well of a sterile 24-well (2 mL) plate (Fisher Scientific, UK) and maintained for at least 24 h in culture before use. […]
(§1) Only normally active worms were used for the test and all assays were conducted at 37 °C and 5% CO2. […] The activity levels of O. gutturosa adult worms were assessed by the measurement of mean motility scores on a scale of 0 (immotile) to 10 (maximum) every 24 h, terminating at 120 h, using an Olympus inverted microscope. For O. lienalis microfilariae, the motility of the microfilariae was classified using an Olympus inverted microscope as normal (continuous rapid sinuous movement, scored as 3), marginally impaired (slower than normal movement, scored as 2), severely impaired (scored as 1), or immotile (scored as 0) after 120 h of drug exposure. […]

O. gutturosa adult worms = test: O. gutturosa adult worm viability, MTT/formazan colorimetry; design: species or system Onchocerca gutturosa; settings: day 5, vs untreated control
Procedure: The EC50 values were calculated using a sigmoidal interpolation in Graph Pad Prisme 7 data analysis software. The test drug is considered active when a motility reduction of ≥50% is observed by comparison to the untreated controls. In addition, biochemical evaluation of O. gutturosa adult worm viability was assessed using MTT/formazan colorimetry. The MTT assay was carried out after the last motility reading (120 h). Single intact worms were placed in each well of a 48-well plate (Fisher Scientific, UK) containing 0.5 mL of 0.5 mg/mL MTT (Sigma, UK) in PBS solution, and then incubated for 30 min at 37 °C. The worms were removed, blotted carefully, and individually transferred to separate wells of a 96-well microtiter plate, each containing 200 μL of DMSO to solubilize the formazan. After 1 h the plate was gently agitated to disperse the color evenly and the absorbance value (optical density, OD) of the resulting formazan solution was determined at 490 nm using an absorbance microplate reader (Biotek ELx800, Fisher Scientific, UK). The results are expressed as the mean OD per drug concentration. Inhibition of formazan formation is correlated with worm damage or death.
Supplementary Figure S4. Ex vivo MTT worm viability screening against adult O. gutturosa. O. gutturosa adult worm viability was assessed using MTT/formazan colorimetry on day 5. […]

[2] = tested on: O. lienalis microfilariae; test: O. lienalis microfilariae 5-day motility assay; design: species or system Onchocerca lienalis; settings: 5 days in vitro culture, top concentration 12.5 μM; read-out: O. lienalis EC50 (motility inhibition, microfilariae)
Procedure: A single large batch of O. lienalis microfilariae was obtained post mortem from the peri-umbilical skin area of freshly slaughtered, naturally infected cattle in the UK following the procedure described by ([Tagboto and Townson, 1991]) and the references therein. The extracted microfilariae were cryopreserved using a 2-step incubation technique with ethanediol as a cryoprotectant ([Ham et al., 1981]), stored in liquid nitrogen and thawed when required for immediate use.
Using a dissecting microscope and micropipette, microfilariae were then transferred in groups of 5 into each well of a 96-well plate (Fisher Scientific, UK). […]
as §1
The EC50 values were calculated using a sigmoidal interpolation in Graph Pad Prisme 7 data analysis software. […]

Row | Compound | Reduction Adult Worms (adult L. sigmodontis) | EC50 ([1]; listed as Imiticide) | EC50 [1] | O. gutturosa MTT % reduction at 12.5 μM (O. gutturosa adult worms) | EC50 [2]
1 | COC(=O)Nc1nc2cc(C(=O)c3ccc(F)cc3)ccc2[nH]1 [Flubendazole, flubendazole] | 98.4% (P = 0.024) and 100% (P = 0.007) | – | – | – | –
2 | Cl.Cl.NCCS[As](SCCN)c1ccc(Nc2nc(N)nc(N)n2)cc1 [Immiticide, melarsomine dihydrochloride] | – | 600 nM | 590 nM | 96.3% | 800 nM
